Reference: patent publication US12139508B2, “Steroid derivative regulators, method for preparing the same, and uses thereof” (JIANGSU HANSOH PHARMACEUTICAL GROUP CO., LTD., priority 2018, dated 2024)

Target: GABA-A receptor
Assay: 35S-TBPS binding assay (GABAA receptor binding ability test)
Parameters: species or system Sprague-Dawley rat
Details: rat cerebral cortex cell membrane, 5 μM GABA, 2 nM 35S-TBPS; read-out: 35S-TBPS bindng test: IC50 on inhibiting the TBPS binding activity
Description: 1.2 Experimental Procedures 1.2.1 Extraction of Cerebral Cortex Cell Membrane:
1. The cerebral cortex of male Sprague-Dawley rat was isolated.
2. A pre-chilled 0.32 M sucrose solution (one tablet of protease inhibitor was added per 100 ml) was added to the cerebral cortex (the volume of sucrose solution was 10 times the volume of the cerebral cortex). The mixture was crushed with a 50 mL glass tissue homogenizer in batches and mixed well.
3. The mixture was centrifuged at 1500 g, 4° C. for 10 minutes, and the supernatant was collected.
4. The mixture was centrifuged at 20000 g, 4° C. for 30 minutes, and the supernatant was discarded.
5. The precipitate was resuspended with the pre-chilled phosphate buffer saline (PBS) (one tablet of protease inhibitor was added per 100 ml). An average of 4 ml of PBS was added per rat, and the mixture was mixed well by a glass tissue homogenizer.
6. The mixture was centrifuged at 10000 g, 4° C. for 10 minutes, and the supernatant was discarded.
7. Steps 5 and 6 were repeated three times.
8. Finally, the precipitate was resuspended with 4 volumes of PBS. The resulting solution was dispensed, frozen in liquid nitrogen, and stored at −80° C.
9. The protein concentration was measured by the bicinchoninic acid (BCA) method.
1.2.2 ^35S-TBPS Binding Assay
1. 230 μL of PBS was added to each well of a well plate with 1.1 ml volume.
2. 60 μL of the cerebral cortex cell membrane (5 μg/μL) solution was added to each well, and the mixture was mixed well.
3. The test compound (3 μL per well) was added, and the plate was incubated at 25° C. for 5 minutes. The DMSO concentration was 1%. The initial compound concentration was 1 μM, and a 3-fold dilution in gradient was carried out to obtain a total of 8 gradients and 2 replicates. 1% DMSO was used as a negative control, and 10 μM P026-2 was used as a positive control.
4. GABA was added at a final concentration of 5 μM, and incubated at 25° C. for 5 minutes. 1 mM GABA solution was formulated, and 1.5 μL of the solution was added to each well.
5. ^35S-TBPS was added at a final concentration of 2 nM. The concentration of isotope mother solution was 9.7 μM. After dilution with PBS for 100 times, 6 μL of the diluted isotope solution was added to each well.
6. The plate was incubated at 4° C. for 20 hours.
7. The FilterMate GF/C plate was pre-treated with 0.5% PEI, and incubated at 4° C. for 1 hour.
8. The FilterMate GF/C plate was washed with Universal Harvester twice, 50 ml PBS each time.
9. The reaction solution was transferred to the GF/C plate, and each well was washed 4 times with 900 μL of PBS.
10. The washed GF/C plate was placed at 55° C. and dried for 10 minutes.
11. 40 μL of scintillation solution was added to each well, and the CPM value was read with TopCount.
1.2.3 Experimental Data Processing Method:
In the experiment, the CPM (counts per minute) value was read with TopCount. According to the readings of the High control (DMSO) and the Low control ([…] of the positive compound) experimental groups, the […] inhibition was calculated based on the following formula: % Inhibition=100×(CPMHigh control−CPMSample)/(CPMHigh control−CPMLow control)
The IC50 of the compound was calculated according to the following 4-parameter nonlinear logic formula: Y=Bottom+(Top−Bottom)/(1+10^((Log IC50−X)*Hill Slope)),
wherein: • X represents the log of compound concentration, • Y represents the 0 Inhibition.
The effect of the compound of the present invention on the TBPS binding activity was determined by the above test, and the measured IC50 values are shown in Table 1.

**Q.** `C[C@@]1(O)CC[C@H]2[C@H](CC[C@@H]3[C@@H]2CC[C@@]2(C)[C@H]3[C@@H]3C[C@@H]3[C@@H]2C(=O)COc2ccc(F)cc2C#N)C1` [Example 126, 5-Fluoro-2-(2-((2R,4aS,4bR,6aS,7S,7aS,8aR,8bR,8cR,10aR)-2-hydroxy-2,6a-dimethyloctadecahydrocyclopropa[4,5]cyclopenta[1,2-a]phenanthren-7-yl)-2-oxoethoxy)benzonitrile] was tested. Which IC50 did it give?
**A.** The IC50 was 4.9 nM.

**Q.** `C[C@@]1(O)CC[C@H]2[C@H](CC[C@@H]3[C@@H]2CC[C@@]2(C)[C@H]3[C@@H]3C[C@@H]3[C@@H]2C(=O)Cn2nccn2)C1` [Example 7, 1-((2R,4aS,4bR,6aS,7S,7aS,8aR,8bR,8cR,10aR)-2-Hydroxy-2,6a-dimethyloctadecahydrocyclopropa[4,5]cyclopenta[1,2-a]phenanthren-7-yl)-2-(2H-1,2,3-triazol-2-yl)ethan-1-one] was tested. Which IC50 did it give?
**A.** The IC50 was 14.7 nM.

**Q.** For `C[C@@]1(O)CC[C@H]2[C@H](CC[C@@H]3[C@@H]2CC[C@@]2(C)[C@H]3[C@@H]3C[C@@H]3[C@@H]2C(=O)Cn2cc(F)cn2)C1` [Example 46, 2-(4-Fluoro-1H-pyrazol-1-yl)-1-((2R,4aS,4bR,6aS,7S,7aS,8aR,8bR,8cR,10aR)-2-hydroxy-2,6a-dimethyloctadecahydrocyclopropa[4,5]cyclopenta[1,2-a]phenanthren-7-yl)ethan-1-one], which IC50 is on record?
**A.** Its IC50 is 28.7 nM.

**Q.** With `C[C@@]1(O)CC[C@H]2[C@H](CC[C@@H]3[C@@H]2CC[C@@]2(C)[C@H]3[C@@H]3C[C@@H]3[C@@H]2C(=O)Cn2cc(C#N)c(C3CC3)n2)C1` [Example 33, 3-Cyclopropyl-1-(2-((2R,4aS,4bR,6aS,7S,7aS,8aR,8bR,8cR,10aR)-2-hydroxy-2,6a-dimethyloctadecahydrocyclopropa[4,5]cyclopenta[1,2-a]phenanthren-7-yl)-2-oxoethyl)-1H-pyrazole-4-carbonitrile] as the molecule, how does the IC50 read?
**A.** The IC50 was 18.3 nM.

**Q.** `CC[C@@H]1C[C@H](C(=O)Cn2ncnn2)[C@@]2(C)CC[C@H]3[C@@H](CC[C@@H]4C[C@](C)(O)CC[C@@H]43)[C@H]12` [Example 149, 1-((3R,5R,8R,9R,10S,13S,14S,15R,17S)-15-Ethyl-3-hydroxy-3,13-dimethylhexadecahydro-1H-cyclopenta[a]phenanthren-17-yl)-2-(2H-tetrazol-2-yl)ethan-1-one] was tested. Which IC50 did it give?
**A.** The IC50 was 25.6 nM.

**Q.** With `CC(=O)[C@H]1[C@H]2C[C@H]2[C@H]2[C@@H]3CC[C@@H]4C[C@](C)(O)CC[C@@H]4[C@H]3CC[C@@]21C` [Example 1, 1-((2R,4aS,4bR,6aS,7S,7aS,8aR,8bR,8cR,10aR)-2-Hydroxy-2,6a-dimethyloctadecahydrocyclopropa[4,5]cyclopenta[1,2-a]phenanthren-7-yl)ethan-1-one] as the molecule, how does the IC50 read?
**A.** Its IC50 is 15 nM.

**Q.** How did the IC50 turn out when `C[C@@]1(O)CC[C@H]2[C@H](CC[C@@H]3[C@@H]2CC[C@@]2(C)[C@H]3[C@@H]3C[C@@H]3[C@@H]2C(=O)Cn2cc3ccncc3n2)C1` [Example 41, 1-((2R,4aS,4bR,6aS,7S,7aS,8aR,8bR,8cR,10aR)-2-hydroxy-2,6a-dimethyloctadecahydrocyclopropa[4,5]cyclopenta[1,2-a]phenanthren-7-yl)-2-(2H-pyrazolo[3,4-c]pyridin-2-yl)ethan-1-one] was run?
**A.** Its IC50 is 22.7 nM.

**Q.** Which IC50 does the source give for `C[C@@]1(O)CC[C@H]2[C@H](CC[C@@H]3[C@@H]2CC[C@]2(C)[C@@H](C(=O)COCC4(C#N)CC4)CC[C@@H]32)C1` [Example 166, 1-((2-((3R,5R,8R,9R,10S,13S,14S,17S)-3-Hydroxy-3,13-dimethylhexadecahydro-1H-cyclopenta[a]phenanthren-17-yl)-2-oxoethoxy)methyl)cyclopropane-1-carbonitrile] here?
**A.** Its IC50 is 38.4 nM.
